Laboratory results from the supplement of paper PMC11061612.

Tests used:
U-698-M [1] = assay: Bliss excess, mean over the matrix (fraction); higher = more synergy; conditions: U-[…], B-Cell Non-Hodgkin's Lymphoma, 7x7
Outline: (§1)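 Cell lines grown in DMEM/F12 or RPMI with 10% FBS were plated in 1536-well plates and held 24 hours at 37°C, 5% CO2 before 72 hours of exposure to two-drug dose matrices, with DMSO typically at 0.2%. CellTiter-Glo 2.0 luminescence gave viability, which was converted to inhibition. Vehicle wells were set to 0 and blank wells to 1. Combination Emax is the second-highest inhibition in the matrix, and Bliss excess is the observed combination effect minus the expected EA + EB − EA·EB, where EA and EB are the single-agent effects.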

U-698-M [2] = assay: combination Emax (second highest fraction inhibited in the dose matrix, 72 h); higher = more inhibition; conditions: B-Cell Non-Hodgkin's Lymphoma, 7x7
Outline: as §1

[3] = first compound max 10 µM, partner max 2 µM
[4] = first compound max 10 µM, partner max 10 µM
[5] = first compound max 2 µM, partner max 1 µM
[6] = first compound max 1 µM, partner max 10 µM
[7] = first compound max 10 µM, partner max 0.3 µM
[8] = first compound max 10 µM, partner max 1 µM
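Wherever Bliss excess, mean over the matrix is given: after 72 h of two-drug dosing.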

In the case of `C[C@@H](Oc1cc(-c2cnn(C3CCNCC3)c2)cnc1N)c1c(Cl)ccc(F)c1Cl` [Crizotinib] + CC1=C(C(=CC=C1)Cl)NC(=O)C2=CN=C(S2)NC3=CC(=NC(=N3)C)N4CCN(CC4)CCO [Dasatinib], the Bliss excess (U-698-M [1]; [3]) is reported as -0.0005 and the “combination Emax” value (U-698-M [2]; [3]) is reported as 0.861.

In the case of `C[C@@H](Oc1cc(-c2cnn(C3CCNCC3)c2)cnc1N)c1c(Cl)ccc(F)c1Cl` [Crizotinib] + Cn1cnc2c(F)c(Nc3ccc(Br)cc3Cl)c(C(=O)NOCCO)cc21 [Selumetinib], the Bliss excess (U-698-M [1]; [4]) is reported as -0.0663 and the “combination Emax” value (U-698-M [2]; [4]) is reported as 0.752.

For `Cc1nc(Nc2ncc(C(=O)Nc3c(C)cccc3Cl)s2)cc(N2CCN(CCO)CC2)n1` [Dasatinib] + CC(=O)Nc1cccc(-n2c(=O)n(C3CC3)c(=O)c3c(Nc4ccc(I)cc4F)n(C)c(=O)c(C)c32)c1 [Trametinib], the Bliss excess (U-698-M [1]; [5]) was -0.0131 and the “combination Emax” value (U-698-M [2]; [5]) was 0.432.

For `COc1cccc2c1C(=O)c1c(O)c3c(c(O)c1C2=O)C[C@@](O)(C(=O)CO)C[C@@H]3O[C@H]1C[C@H](N)[C@H](O)[C@H](C)O1` [Doxorubicin] + Cc1cc2ncnn2cc1Nc1ncc2c(n1)n(C1CCOCC1)c(=O)n2C [AZD7648], the Bliss excess (U-698-M [1]; [6]) was 0.084 and the “combination Emax” value (U-698-M [2]; [6]) was 0.909.

With `COc1cc2ncnc(Nc3ccc(F)c(Cl)c3)c2cc1OCCCN1CCOCC1` [Gefitinib] + CC(C)n1c(=O)n(C)c2cnc3cc(F)c(-c4ccc(OCCCN5CCCCC5)nc4)cc3c21 [AZD1390] the Bliss excess (U-698-M [1]; [7]) was -0.0593 and the “combination Emax” value (U-698-M [2]; [7]) was 0.354.

`CS(=O)(=O)CCNCc1ccc(-c2ccc3ncnc(Nc4ccc(OCc5cccc(F)c5)c(Cl)c4)c3c2)o1` [Lapatinib] + C[C@@H](Oc1cc(-c2cnn(C3CCNCC3)c2)cnc1N)c1c(Cl)ccc(F)c1Cl [Crizotinib] was tested, and the Bliss excess (U-698-M [1]; [4]) was -0.0653 and the “combination Emax” value (U-698-M [2]; [4]) was 0.934.

For `CS(=O)(=O)CCNCc1ccc(-c2ccc3ncnc(Nc4ccc(OCc5cccc(F)c5)c(Cl)c4)c3c2)o1` [Lapatinib] + Cn1cnc2c(F)c(Nc3ccc(Br)cc3Cl)c(C(=O)NOCCO)cc21 [Selumetinib], the Bliss excess (U-698-M [1]; [4]) was -0.0215 and the “combination Emax” value (U-698-M [2]; [4]) was 0.585.

With `CS(=O)(=O)CCNCc1ccc(-c2ccc3ncnc(Nc4ccc(OCc5cccc(F)c5)c(Cl)c4)c3c2)o1` [Lapatinib] + NC1(c2ccc(-c3nc4ccn5c(=O)[nH]nc5c4cc3-c3ccccc3)cc2)CCC1 [MK-2206] the Bliss excess (U-698-M [1]; [4]) was 0.0097 and the “combination Emax” value (U-698-M [2]; [4]) was 0.905.

`O=C(c1cc(Cc2n[nH]c(=O)c3ccccc23)ccc1F)N1CCN(C(=O)C2CC2)CC1` [Olaparib] + CC1(C)CCC(CN2CCN(c3ccc(C(=O)NS(=O)(=O)c4ccc(NCC5CCOCC5)c([N+](=O)[O-])c4)c(Oc4cnc5[nH]ccc5c4)c3)CC2)=C(c2ccc(Cl)cc2)C1 [Venetoclax] was tested, and the Bliss excess (U-698-M [1]; [8]) was -0.0064 and the “combination Emax” value (U-698-M [2]; [8]) was 0.192.

In the case of `O=C(c1cc(Cc2n[nH]c(=O)c3ccccc23)ccc1F)N1CCN(C(=O)C2CC2)CC1` [Olaparib] + CN(CC[C@H](CSC1=CC=CC=C1)NC2=C(C=C(C=C2)S(=O)(=O)NC(=O)C3=CC=C(C=C3)N4CCC(CC4)[C@H](C5=CC=CC=C5C6=CC=C(C=C6)Cl)O)S(=O)(=O)C(F)(F)F)CCO [AZD4320], the Bliss excess (U-698-M [1]; [8]) is reported as -0.0494 and the “combination Emax” value (U-698-M [2]; [8]) is reported as 0.135.

For `O=C(c1cc(Cc2n[nH]c(=O)c3ccccc23)ccc1F)N1CCN(C(=O)C2CC2)CC1` [Olaparib] + COc1nnc2ccc(N3CCC(c4ccc(OCCN5CCN(C)C(=O)[C@H]5C)cc4)CC3)nn12 [AZD5153], the Bliss excess (U-698-M [1]; [8]) was -0.0374 and the “combination Emax” value (U-698-M [2]; [8]) was 0.578.

For `O=C(c1cc(Cc2n[nH]c(=O)c3ccccc23)ccc1F)N1CCN(C(=O)C2CC2)CC1` [Olaparib] + Cc1c2c(nn1C)CSCc1cc(n(C)n1)CSc1cc(c3ccccc3c1)OCCCc1c(C(=O)O)n(C)c3c-2c(Cl)ccc13 [AZD5991], the Bliss excess (U-698-M [1]; [8]) was 0.0244 and the “combination Emax” value (U-698-M [2]; [8]) was 0.987.

`CC(=O)c1c(C)c2cnc(Nc3ccc(N4CCNCC4)cn3)nc2n(C2CCCC2)c1=O` [Palbociclib] + CC1(C)CCC(CN2CCN(c3ccc(C(=O)NS(=O)(=O)c4ccc(NCC5CCOCC5)c([N+](=O)[O-])c4)c(Oc4cnc5[nH]ccc5c4)c3)CC2)=C(c2ccc(Cl)cc2)C1 [Venetoclax] was tested, and the Bliss excess (U-698-M [1]; [8]) was -0.0676 and the “combination Emax” value (U-698-M [2]; [8]) was 0.548.

`CC(=O)c1c(C)c2cnc(Nc3ccc(N4CCNCC4)cn3)nc2n(C2CCCC2)c1=O` [Palbociclib] + Cc1c2c(nn1C)CSCc1cc(n(C)n1)CSc1cc(c3ccccc3c1)OCCCc1c(C(=O)O)n(C)c3c-2c(Cl)ccc13 [AZD5991] was tested, and the Bliss excess (U-698-M [1]; [8]) was -0.0228 and the “combination Emax” value (U-698-M [2]; [8]) was 0.98.
